Source: US20260297060A1, “COMPOUNDS FOR THE DEGRADATION OF MUTANT BRAF” (C4 THERAPEUTICS, INC., priority 2023, published 2026)
Like-named read-outs stand apart in the source and are kept apart here.

Assay: Example 9 pharmacokinetics assay for efficacy study Part I and II (plasma, liver)
Type: in vivo, BALB/c nude mice
Settings: mouse, po, 100 mg/kg, p.o., QD × 14 days, 6 h following last treatment, ± SEM
Method: For efficacy study Part I, agents were tested in the A375 human melanoma xenografts. Compound 218 and Compound 157 were administered to BALB/c nude mice bearing A375 xenografts from day 0 and dosed twice a day (BID) for 14 days. Compound 218 and Compound 157 were dosed at 10 mg/kg via p.o.. Dabrafenib was administered from day 1 daily (QD) for 14 days and dosed at 100 mg/kg via p.o..
For efficacy study Part II, agents were tested in the A375 human melanoma xenografts model. Compound 133, Compound 144 and Compound 198 were administered to BALB/c nude mice bearing A375 xenografts from day 0 and dosed twice a day (BID) for 14 days. Compound 133, Compound 144 and Compound 198 were dosed at 10 mg/kg via p.o..
The plasma samples were collected at predetermined time points for PK analysis. The mice were euthanized at predetermined time points post the treatment. The blood samples were collected into the 1.5 mL Eppendorf tubes containing 15 μL of 0.5 M EDTA-K2. And then the anticoagulant blood samples were centrifuged at 2,500 g at 4° C. for 15 minutes. The plasma samples were separated into 2 aliquots. The 1st was used for PK analysis, and the 2nd served as backup. The samples were stored at −80° C. before bioanalysis.
Liver samples were collected at predetermined time points for PK analysis. The left lobe of the liver was dissected out and split into 2 parts. The 1st part was used for PK analysis and the 2nd part served as the backup for the study. The samples were transferred into pre-labeled tubes and quickly froze in liquid nitrogen within 2 minutes after dissection. The samples were stored at −80° C. before bioanalysis.
The harvested plasma and liver samples were processed for pharmacokinetics analysis by LC-MS/MS with a concentration range of 1.00-1,000 ng/mL for Dabrafenib in plasma and liver homogenate, 10.0-10,000 ng/mL for Compound 218, Compound 157, Compound 133, Compound 144 and Compound 198 in plasma and liver homogenate.

concentration at 6 h (liver, read-out: Mean Concentration in Liver): 1240 ± 162 ng/g
concentration at 6 h (plasma, read-out: Mean Concentration in Plasma): 410 ± 58.2 ng/mL
Compound: CC(C)(C)c1nc(-c2cccc(NS(=O)(=O)c3c(F)cccc3F)c2F)c(-c2ccnc(N)n2)s1 [Dabrafenib, dabrafenib, reference compound]
